Source: article PMC7617456, “Cryptosporidium lysyl-tRNA synthetase inhibitors define the interplay between solubility and permeability required to achieve efficacy” (Science translational medicine, 2024)
pEC50, pIC50: −log10 of the molar value.

Experiments:
wild type parasites (WT) = test: Transgenic C. parvum NanoLuciferase drug sensitivity assay, WT; assay type: cell-based; conditions: Cryptosporidium parvum, HCT-8, 48 h, read-out: EC50, WT
PAMPA permeability = assay type: in vitro ADME; conditions: for Papp at 5 h, 10 µM: PAMPA, pH 7.4, pH 7.4
Experimental: Solubility test samples were prepared by adding 5 μL stock to PBS pH 7.4 (195 μL). […] […] vacuum […] (Millipore Multiscreen HTS fi lter, 96-well format) to remove any undissolved material. The […] analyzed for dissolved drug compound using a truncated UHPLC methodology. A calibration solution was prepared for each test compound. […] Aliquots of the test sample […] (0.4 and 5.0 μL) were injected onto the UHPLC system and the resultant test compound peak areas quantifi ed […] PAMPA per meability As previously described.(28) The permeability assay was performed using a 96-well precoated BD Gentest PAMPA plate (BD Biosciences). Each well was divided into two chambers: donor and acceptor, separated by a lipid-oil-lipid trilayer constructed in a porous fi lter. […] Stock solutions (5 mM) of the compound were prepared in DMSO. […] The compound dissolved in phosphate buffered saline was added to the donor side of the membrane, and phosphate-buffered saline without the compound was added to the acceptor side. The PAMPA plate was left at room temperature for 5 h then an aliquot (100 μL) was removed from both acceptor and donor compartments and mixed with acetonitrile (80 μL) containing an internal standard: donepezil at 50 ng/mL. The samples were centrifuged (10 min, 5 °C, 3270×g) to sediment lipids and sealed prior to UPLC-MS/MS analysis using a Quattro Premier XE (Waters Corp, USA). Recovery of the compound from donor and acceptor wells was calculated, and data were only accepted when recovery exceeded 70%.

Mouse pharmacokinetics = conditions: for AUC / Vd / half-life / Cmax / Tmax / bioavailability: female, BALB/C, whole blood; for AUC / Vd / half-life / Cmax / Tmax / bioavailability / Clb: mouse; for CLB: mouse IV 3 mg/kg, clearance in blood; for Clb: percent of liver blood flow; for mean free (unbound) drug concentration relative to EC90: uninfected mice, 10 mg/kg oral single dose
Experimental: Uninfected mice were administered a single oral (10 mg/kg) dose of either DDD489 or DDD508 using the same formulation and dose concentration as for the efficacy study. Blood samples were collected at various time points after drug administration (15, 30, 60, 120, 180, 240, and 480 minutes) and analyzed to produce a concentration-time plot of unbound drug concentration (Fig. 3). […]
Mouse pharmacokinetics (Dundee)
As previously described.(27)
Test compound was dosed as a bolus solution intravenously (IV) at 3mg/kg (dose volume: 5 mL/kg; dose vehicle: 10% DMSO; 40% PEG 400; 50% Milli-Q water) or dosed orally (PO) by gavage as a suspension at 10mg/kg (dose volume: 10 mL/kg; dose vehicle: 1% CMC to female BALB/C mice (n = 3/dose route). Blood samples were taken from each mouse at 5, 15, 30 min, 1, 2, 4, 6, 8 h mixed with nine volumes of Milli-Q water and stored frozen until UPLC/MS/MS analysis. Pharmacokinetic parameters were derived from the blood concentration-time curve using PK solutions software v2.0 (Summit Research Services, USA).

[1] = Liver microsomal intrinsic clearance, bovine; assay type: in vitro ADME; conditions: bovine liver microsomes
[2] = Plasma protein binding, rat; assay type: in vitro ADME; conditions: read-out: PPB (r) (converted)
CYP450 2C19 = CYP450 2C19 (Homo sapiens, UniProt P33261); test: CYP450 inhibition 2C19; assay type: in vitro ADME
CYP450 2C19, sequence (P33261 whole entry): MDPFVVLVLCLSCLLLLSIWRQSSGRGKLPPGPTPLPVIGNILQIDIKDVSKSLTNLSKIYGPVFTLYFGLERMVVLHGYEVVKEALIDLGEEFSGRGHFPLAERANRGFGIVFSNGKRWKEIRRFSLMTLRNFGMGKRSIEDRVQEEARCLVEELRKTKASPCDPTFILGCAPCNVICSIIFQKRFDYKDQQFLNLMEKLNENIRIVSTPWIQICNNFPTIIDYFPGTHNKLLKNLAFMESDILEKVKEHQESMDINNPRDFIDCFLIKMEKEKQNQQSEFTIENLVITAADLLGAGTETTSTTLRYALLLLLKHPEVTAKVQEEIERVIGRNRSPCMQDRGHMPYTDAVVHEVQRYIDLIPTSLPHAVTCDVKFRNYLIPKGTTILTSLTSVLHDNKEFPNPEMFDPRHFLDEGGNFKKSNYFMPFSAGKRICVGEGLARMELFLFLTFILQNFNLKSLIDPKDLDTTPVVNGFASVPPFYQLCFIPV
Experimental: CYP450 inhibition (Dundee)
As previously described.(31)
DDD489 and DDD508 were evaluated for their ability to induce reverse mutations both in the presence and absence of S9 mix at the histidine locus in the genome of four strains of Salmonella typhimurium (TA98, TA100, TA1535, and TA97a) and at the tryptophan locus in the genome of Escherichia coli WP2 uvrA in a mini-Ames study conducted at WuXi App Tec […]
(§1) hERG inhibition (WuXi App Tec)
DDD489 and DDD508 were evaluated for their effects on cloned hERG potassium channels stably expressed in Chinese Hamster Ovary (CHO) cells using manual patch-clamp technique in a hERG inhibition assay conducted at WuXi App Tec (Suzhou).
Mitochondrial toxicity (Cyprotex)
DDD489 and DDD508 were evaluated for their effects on mitochondrial function in a functional mitochondrial toxicity assay using Seahorse XFe96 flux analyser conducted at […]
44 screen safety panel (Eurofins)
DDD489 was evaluated for off-target effects in a SafetyScreen44 panel at Eurofins Cerep.
All regulated procedures, at the University of Dundee, on living animals were carried out under the authority of a project license issued by the Home Office under the Animals (Scientific Procedures) Act 1986, as amended in 2012 (and in compliance with EU Directive EU/2010/63). […]

hERG potassium channels = biological target: T1, hERG potassium channels (Homo sapiens, UniProt Q12809); test: hERG inhibition, manual patch-clamp; assay type: cell-based; conditions: CHO cells
T1 construct: host or cells: Chinese Hamster Ovary (CHO) cells
T1 sequence (Q12809 whole entry): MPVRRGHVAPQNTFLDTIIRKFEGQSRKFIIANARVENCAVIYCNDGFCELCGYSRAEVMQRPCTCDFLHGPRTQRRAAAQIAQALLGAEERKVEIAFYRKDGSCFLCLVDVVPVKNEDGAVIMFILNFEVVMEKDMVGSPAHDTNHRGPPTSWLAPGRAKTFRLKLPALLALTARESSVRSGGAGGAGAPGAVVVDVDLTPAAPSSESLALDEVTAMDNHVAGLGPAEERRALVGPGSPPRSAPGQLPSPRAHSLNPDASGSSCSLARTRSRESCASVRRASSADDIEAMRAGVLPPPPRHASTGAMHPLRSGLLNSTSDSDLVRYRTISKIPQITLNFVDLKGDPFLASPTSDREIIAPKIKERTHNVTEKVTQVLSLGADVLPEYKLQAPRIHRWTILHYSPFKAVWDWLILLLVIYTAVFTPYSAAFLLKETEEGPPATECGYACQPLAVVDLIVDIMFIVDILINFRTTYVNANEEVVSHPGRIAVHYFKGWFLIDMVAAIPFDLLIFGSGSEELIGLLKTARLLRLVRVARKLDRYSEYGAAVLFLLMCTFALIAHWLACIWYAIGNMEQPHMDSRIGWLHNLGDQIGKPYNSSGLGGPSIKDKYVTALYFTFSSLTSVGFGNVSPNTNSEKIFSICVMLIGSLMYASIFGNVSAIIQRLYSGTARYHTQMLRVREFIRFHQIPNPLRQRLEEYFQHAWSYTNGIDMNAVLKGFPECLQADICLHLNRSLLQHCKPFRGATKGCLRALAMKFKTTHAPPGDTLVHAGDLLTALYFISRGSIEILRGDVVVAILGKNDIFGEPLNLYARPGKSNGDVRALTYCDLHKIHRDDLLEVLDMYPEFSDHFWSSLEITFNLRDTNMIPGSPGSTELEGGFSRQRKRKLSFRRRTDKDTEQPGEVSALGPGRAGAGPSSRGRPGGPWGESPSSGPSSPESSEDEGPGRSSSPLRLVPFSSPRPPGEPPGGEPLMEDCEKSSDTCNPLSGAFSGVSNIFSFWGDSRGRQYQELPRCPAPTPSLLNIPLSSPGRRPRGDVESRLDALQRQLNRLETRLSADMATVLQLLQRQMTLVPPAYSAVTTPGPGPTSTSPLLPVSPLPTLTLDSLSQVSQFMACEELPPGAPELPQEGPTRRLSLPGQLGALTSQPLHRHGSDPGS
Experimental: as §1
DDD489 and DDD508 were evaluated for their effects on cloned hERG potassium channels stably expressed in Chinese Hamster Ovary (CHO) cells using manual patch-clamp technique in a hERG inhibition assay conducted at WuXi App Tec (Suzhou). […]

HsKRS = biological target: T2, HsKRS (Homo sapiens, UniProt Q15046); test: HsKRS in vitro enzyme assay; assay type: biochemical; conditions: mean (95% confidence interval)
T2 construct: made in house
T2 sequence (Q15046 whole entry): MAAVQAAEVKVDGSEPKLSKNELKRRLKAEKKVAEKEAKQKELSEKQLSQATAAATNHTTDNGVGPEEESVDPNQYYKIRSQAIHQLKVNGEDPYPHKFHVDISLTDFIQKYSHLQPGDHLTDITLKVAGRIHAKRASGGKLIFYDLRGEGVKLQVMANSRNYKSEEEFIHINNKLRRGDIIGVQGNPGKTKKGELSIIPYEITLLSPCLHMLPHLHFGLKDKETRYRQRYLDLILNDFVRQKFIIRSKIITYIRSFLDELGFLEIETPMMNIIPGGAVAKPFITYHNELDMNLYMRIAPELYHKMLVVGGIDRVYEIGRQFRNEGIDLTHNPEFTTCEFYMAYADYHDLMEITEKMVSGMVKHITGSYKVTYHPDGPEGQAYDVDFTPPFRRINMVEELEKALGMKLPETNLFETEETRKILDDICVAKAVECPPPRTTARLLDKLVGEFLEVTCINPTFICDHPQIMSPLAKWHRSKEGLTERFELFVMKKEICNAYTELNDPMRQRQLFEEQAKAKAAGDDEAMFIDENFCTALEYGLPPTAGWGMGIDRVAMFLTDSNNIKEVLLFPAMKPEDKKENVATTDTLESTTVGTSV

[3] = Liver microsomal intrinsic clearance, mouse; assay type: in vitro ADME; conditions: mouse liver microsomes

SMILES	pEC50 (wild type parasites (WT))	Papp at 5 h, 10 µM (PAMPA permeability)	AUC (Mouse pharmacokinetics; iv, 3 mg/kg)	Vd (Mouse pharmacokinetics; iv, 3 mg/kg)	half-life (Mouse pharmacokinetics; iv, 3 mg/kg)	AUC (Mouse pharmacokinetics; po, 10 mg/kg)	Cmax (Mouse pharmacokinetics; po, 10 mg/kg)	Tmax (Mouse pharmacokinetics; po, 10 mg/kg)	bioavailability (Mouse pharmacokinetics; po, 10 mg/kg)	CLB (Mouse pharmacokinetics)	Clb (Mouse pharmacokinetics)	mean free (unbound) drug concentration relative to EC90 (Mouse pharmacokinetics)	Mics CLi (b) [1]	fraction unbound [2]	pIC50 (CYP450 2C19)	pIC50 (hERG potassium channels)	pIC50 (HsKRS)	Mics CLi (m) [3]	PAMPA Papp (PAMPA permeability; pH 7.4)
Nc1nc2c(c(C(F)(F)F)n1)C(=O)N(CC1CCCC(C(F)(F)F)C1)C2 (stereo not shown) [DDD489]	7.07	17.1 ×10⁻⁶ cm/s	2280 ng·h/mL	2.8 L/kg	90 min	517 ng·h/mL	200 ng/mL	60 min	7%	22 mL/min/kg	17 % LBF	remained below the EC90	25 mL/min/g	0.42	< 4.00	< 4.52	4.66	12 mL/min/g	–
O=C(NCC1(O)CCCCC1)c1cc(=O)c2cc(O)ccc2o1 [DDD508]	6.57	0.69 ×10⁻⁶ cm/s	1480 ng·h/mL	1.8 L/kg	36 min	267 ng·h/mL	200 ng/mL	15 min	6%	34 mL/min/kg	27 % LBF	remained below the EC90	< 0.5 mL/min/g	0.47	< 4.00	< 4.52	5.00	1.4 mL/min/g	0.7 ×10⁻⁶ cm/s
